Measurements taken from patent US7494996B2 (priority 2000, dated 2009).

Assays:
Mexican Bean Beetle = test: Protocol 1 Mexican Bean Beetle (BB) foliar spray test; type: in vivo, Epilachna verivestis; conditions: control rated after 48 hours (100 = all larvae dead)
Protocol: (§1) A test solution containing 1250 parts per million (ppm) was prepared by dissolving the test compound in […] of a second solvent (acetone: water, 1:1) to give an acetone:water: methanol system of 50: 40:10.
(§2) The enclosed spraying chamber consisted of a single spray nozzle mounted on a boom moving at a fixed speed and distance over stationary targets. The vertical distance from the nozzle tip to the targets was adjusted to give rates varying from 150 g/ha to 600 g/ha
(§3) Individual fully expanded primary lima bean (Phaseolus limensis) leaves were placed bottom side up on moistened pieces of filter paper in Petri dishes. The leaves were sprayed with the test solutions and allowed to dry. The dishes were infested with 5 third instar larvae of the mexican bean beetle, covered with the lids, and held at 27° C. Bean beetle control was rated by visual inspection after 48 hours. […] A rating of 0 indicated no dead larvae and normal feeding. Intermediate control was indicated by intermediate ratings.

Two-Spotted Spider Mite = test: Protocol 1 Two-Spotted Spider Mite (MTA) foliar spray test; type: in vivo, Tetranychus urticae; conditions: percentage of mites killed 1-day post-treatment
Protocol: as §1, §2
A pad of moistened cotton was placed in a Petri dish. A 1-inch square section cut from a fully expanded primary lima bean (Phaseolus limensis) leaf was positioned bottom side up on the moist cotton. The leaf square was infested with approximately 50 adult female mites. The dishes were sprayed with the test solutions and held at 27° C. for mortality determination 1-day post-treatment. The percentage of mites killed were rated from 100% (all dead) to 0% (all alive).

Pyricularia oryzae = test: whole plant or invertebrate; type: in vivo; conditions: protectant, 300 g/ha, greenhouse; 100 is total disease control, 0 is no disease control
Sphaerotheca fuliginea = test: Cucumber Powdery Mildew (CPM) protectant test in the greenhouse; type: in vivo; conditions: 300 g/ha, 100 is total disease control, 0 is no disease control
Summary of the method: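 Protectant format: one day after spraying with test compound (A/M/W 1:1:2), cotyledon-plus-one-leaf cucumber plants were misted with Sphaerotheca spores at 2×10^5/ml. Greenhouse disease development; percent control scored at day 7 (100 = total, 0 = none).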

Southern Armyworm = test: Protocol 1 Southern Armyworm (AW) foliar spray test; type: in vivo, Spodoptera eridania
Protocol: as §1, §2
as §3, with “southern armyworm,” for “mexican bean beetle,”, “Armyworm” for “Bean beetle”

With `O=c1cnc(-c2ccc(Cl)cc2)nn1Cc1ccccc1` [Compound 240] the BB (Mexican Bean Beetle; Protocol 1, DOSE 300) was 75, the MTA (Two-Spotted Spider Mite; Protocol 1, DOSE 300) was 100% and the “Rice Blast (RB) protectant fungicide data, percent control” value (from here on “Rice Blast … percent control”) (Pyricularia oryzae) was 95 percent control. For the same compound, the “Cucumber Powdery Mildew (CPM) protectant fungicide data, percent control” value (from here on “Cucumber Powdery Mildew … percent control”) (Sphaerotheca fuliginea) was 75 percent control and the AW (Southern Armyworm; Protocol 1, DOSE 300) was 50.
For `CN1N=C(c2ccc(Cl)cc2)NCC1=O` [Compound 27], the BB (Mexican Bean Beetle; Protocol 1, DOSE 300) was 75, the MTA (Two-Spotted Spider Mite; Protocol 1, DOSE 300) was 0% and the “Rice Blast … percent control” value (Pyricularia oryzae) was 80 percent control. For the same compound, the “Cucumber Powdery Mildew … percent control” value (Sphaerotheca fuliginea) was 99 percent control and the AW (Southern Armyworm; Protocol 1, DOSE 300) was 0.
For `CC(=O)N1CC(=O)N(CC(F)(F)F)N=C1c1ccc(Cl)cc1` [Compound 40], the BB (Mexican Bean Beetle; Protocol 1, DOSE 300) was 50, the MTA (Two-Spotted Spider Mite; Protocol 1, DOSE 300) was 90% and the “Rice Blast … percent control” value (Pyricularia oryzae) was 90 percent control. For the same compound, the “Cucumber Powdery Mildew … percent control” value (Sphaerotheca fuliginea) was 0 percent control and the AW (Southern Armyworm; Protocol 1, DOSE 300) was 0.
`Cc1ccc(-c2ncc(=O)n(CC(F)(F)F)n2)cc1` [Compound 247] was tested, and the BB (Mexican Bean Beetle; Protocol 1, DOSE 300) was 90, the MTA (Two-Spotted Spider Mite; Protocol 1, DOSE 300) was 0% and the “Rice Blast … percent control” value (Pyricularia oryzae) was 100 percent control. For the same compound, the “Cucumber Powdery Mildew … percent control” value (Sphaerotheca fuliginea) was 80 percent control and the AW (Southern Armyworm; Protocol 1, DOSE 300) was 0.
`O=C1CNC(c2ccccc2)=NN1CC(F)(F)F` [Compound 33] was tested, and the BB (Mexican Bean Beetle; Protocol 1, DOSE 300) was 100, the MTA (Two-Spotted Spider Mite; Protocol 1, DOSE 300) was 75% and the “Rice Blast … percent control” value (Pyricularia oryzae) was 80 percent control. The “Cucumber Powdery Mildew … percent control” value (Sphaerotheca fuliginea) was 75 percent control and the AW (Southern Armyworm; Protocol 1, DOSE 300) was 0.
For `Cc1ccc(C2=NN(CC(F)(F)F)C(=O)CN2)cc1` [Compound 41], the BB (Mexican Bean Beetle; Protocol 1, DOSE 300) was 50, the MTA (Two-Spotted Spider Mite; Protocol 1, DOSE 300) was 0% and the “Rice Blast … percent control” value (Pyricularia oryzae) was 100 percent control. The “Cucumber Powdery Mildew … percent control” value (Sphaerotheca fuliginea) was 50 percent control and the AW (Southern Armyworm; Protocol 1, DOSE 300) was 0.
With `CCC(C)N1N=C(C2CCCCC2)NCC1=O` (stereo not drawn) [Compound 48] the BB (Mexican Bean Beetle; Protocol 1, DOSE 150) was 0, the MTA (Two-Spotted Spider Mite; Protocol 1, DOSE 150) was 75% and the “Rice Blast … percent control” value (Pyricularia oryzae) was 50 percent control. The “Cucumber Powdery Mildew … percent control” value (Sphaerotheca fuliginea) was 0 percent control and the AW (Southern Armyworm; Protocol 1, DOSE 150) was 0.
For `O=c1cnc(-c2cc(Cl)cc(Cl)c2)nn1CC(F)(F)F` [Compound 248], the BB (Mexican Bean Beetle; Protocol 1, DOSE 150) was 0, the MTA (Two-Spotted Spider Mite; Protocol 1, DOSE 150) was 100% and the “Rice Blast … percent control” value (Pyricularia oryzae) was 100 percent control. The “Cucumber Powdery Mildew … percent control” value (Sphaerotheca fuliginea) was 80 percent control and the AW (Southern Armyworm; Protocol 1, DOSE 150) was 0.
For `Cn1nc(-c2ccc(Cl)cc2)ncc1=O` [Compound 238], the BB (Mexican Bean Beetle; Protocol 1, DOSE 300) was 75, the MTA (Two-Spotted Spider Mite; Protocol 1, DOSE 300) was 100% and the “Rice Blast … percent control” value (Pyricularia oryzae) was 50 percent control. The “Cucumber Powdery Mildew … percent control” value (Sphaerotheca fuliginea) was 90 percent control and the AW (Southern Armyworm; Protocol 1, DOSE 300) was 0.
`CCCCN1N=C(c2ccc(Cl)cc2)NCC1=O` [Compound 50] was tested, and the BB (Mexican Bean Beetle; Protocol 1, DOSE 150) was 0, the MTA (Two-Spotted Spider Mite; Protocol 1, DOSE 150) was 75% and the “Rice Blast … percent control” value (Pyricularia oryzae) was 100 percent control. The “Cucumber Powdery Mildew … percent control” value (Sphaerotheca fuliginea) was 80 percent control and the AW (Southern Armyworm; Protocol 1, DOSE 150) was 0.
For `O=c1cnc(-c2cccc(Cl)c2)nn1CC(F)(F)F` [Compound 245], the BB (Mexican Bean Beetle; Protocol 1, DOSE 300) was 100, the MTA (Two-Spotted Spider Mite; Protocol 1, DOSE 300) was 100% and the “Rice Blast … percent control” value (Pyricularia oryzae) was 99 percent control. The “Cucumber Powdery Mildew … percent control” value (Sphaerotheca fuliginea) was 0 percent control and the AW (Southern Armyworm; Protocol 1, DOSE 300) was 100.
In the case of `CCCCCn1nc(-c2ccc(Cl)cc2)ncc1=O` [Compound 234], the BB (Mexican Bean Beetle; Protocol 1, DOSE 300) is reported as 0, the MTA (Two-Spotted Spider Mite; Protocol 1, DOSE 300) is reported as 100% and the “Rice Blast … percent control” value (Pyricularia oryzae) is reported as 100 percent control. The “Cucumber Powdery Mildew … percent control” value (Sphaerotheca fuliginea) was 80 percent control and the AW (Southern Armyworm; Protocol 1, DOSE 300) was 0.
